What was measured:
EP300 = EP300 (Homo sapiens, UniProt Q09472); assay: Histone acetyltransferase inhibitory activity against EP300 (Test Example 1); type: biochemical; conditions: 50 ng/mL EP300, 2 μM Acetyl-CoA, 100 nM Histone H4(1-25)-GSGSK (Biotin), 28° C. for 1 hour
Procedure: (§1) [Test Example 1] Evaluation of Histone
(§2) Acetyltransferase Inhibitory Activity against EP300 and CREBBP
(§3) 10 μL each of reaction solutions each containing a different concentration of the compound of each of Examples 1 to 108b (50 mM Tris-HCl (pH8.0), 0.1 mM EDTA, 1 mM dithiothreitol, 0.01% Tween-20, 0.01% Bovine serum albumin, 330 nM trichostatin A, 2 μM Acetyl-CoA (Sigma-Aldrich, #A2056), 100 nM Histone H4(1-25)-GSGSK (Biotin) (Anaspec, #65242-1), 1% dimethyl sulfoxide, 10 to 0.0006 μM of each compound, 50 ng/mL EP300 or 125 ng/mL CREBBP) was added to respective wells of a 384-well plate, and cultured at 28° C. for 1 hour. Thereafter, 5 μL of 30 μM Lys-CoA (Daiichi Sankyo Co., Ltd.) dissolved in LANCE detection buffer (Perkin Elmer Co., Ltd., #CR97-100) was added to each well. Furthermore, 5 μL of LANCE detection buffer containing 2 nM Eu-anti pan-Ac (Perkin Elmer Co., Ltd., #TRF0412) and 50 nM Sta-Ulight (Perkin Elmer Co., Ltd., #TRF0102) was added to each well, and the resultant was cultured at room temperature overnight. EnVision (Perkin Elmer Co., Ltd., Model 2104-0020) was used to measure ULight signals. […] EP300 and CREBBP were produced and purified by Daiichi Sankyo RD Novare Co., Ltd.

CREBBP = CREBBP (Homo sapiens, UniProt Q92793); assay: Histone acetyltransferase inhibitory activity against CREBBP (Test Example 1); type: biochemical; conditions: 125 ng/mL CREBBP, 2 μM Acetyl-CoA, 100 nM Histone H4(1-25)-GSGSK (Biotin), 28° C. for 1 hour
Chain of CREBBP (Q92793 whole entry): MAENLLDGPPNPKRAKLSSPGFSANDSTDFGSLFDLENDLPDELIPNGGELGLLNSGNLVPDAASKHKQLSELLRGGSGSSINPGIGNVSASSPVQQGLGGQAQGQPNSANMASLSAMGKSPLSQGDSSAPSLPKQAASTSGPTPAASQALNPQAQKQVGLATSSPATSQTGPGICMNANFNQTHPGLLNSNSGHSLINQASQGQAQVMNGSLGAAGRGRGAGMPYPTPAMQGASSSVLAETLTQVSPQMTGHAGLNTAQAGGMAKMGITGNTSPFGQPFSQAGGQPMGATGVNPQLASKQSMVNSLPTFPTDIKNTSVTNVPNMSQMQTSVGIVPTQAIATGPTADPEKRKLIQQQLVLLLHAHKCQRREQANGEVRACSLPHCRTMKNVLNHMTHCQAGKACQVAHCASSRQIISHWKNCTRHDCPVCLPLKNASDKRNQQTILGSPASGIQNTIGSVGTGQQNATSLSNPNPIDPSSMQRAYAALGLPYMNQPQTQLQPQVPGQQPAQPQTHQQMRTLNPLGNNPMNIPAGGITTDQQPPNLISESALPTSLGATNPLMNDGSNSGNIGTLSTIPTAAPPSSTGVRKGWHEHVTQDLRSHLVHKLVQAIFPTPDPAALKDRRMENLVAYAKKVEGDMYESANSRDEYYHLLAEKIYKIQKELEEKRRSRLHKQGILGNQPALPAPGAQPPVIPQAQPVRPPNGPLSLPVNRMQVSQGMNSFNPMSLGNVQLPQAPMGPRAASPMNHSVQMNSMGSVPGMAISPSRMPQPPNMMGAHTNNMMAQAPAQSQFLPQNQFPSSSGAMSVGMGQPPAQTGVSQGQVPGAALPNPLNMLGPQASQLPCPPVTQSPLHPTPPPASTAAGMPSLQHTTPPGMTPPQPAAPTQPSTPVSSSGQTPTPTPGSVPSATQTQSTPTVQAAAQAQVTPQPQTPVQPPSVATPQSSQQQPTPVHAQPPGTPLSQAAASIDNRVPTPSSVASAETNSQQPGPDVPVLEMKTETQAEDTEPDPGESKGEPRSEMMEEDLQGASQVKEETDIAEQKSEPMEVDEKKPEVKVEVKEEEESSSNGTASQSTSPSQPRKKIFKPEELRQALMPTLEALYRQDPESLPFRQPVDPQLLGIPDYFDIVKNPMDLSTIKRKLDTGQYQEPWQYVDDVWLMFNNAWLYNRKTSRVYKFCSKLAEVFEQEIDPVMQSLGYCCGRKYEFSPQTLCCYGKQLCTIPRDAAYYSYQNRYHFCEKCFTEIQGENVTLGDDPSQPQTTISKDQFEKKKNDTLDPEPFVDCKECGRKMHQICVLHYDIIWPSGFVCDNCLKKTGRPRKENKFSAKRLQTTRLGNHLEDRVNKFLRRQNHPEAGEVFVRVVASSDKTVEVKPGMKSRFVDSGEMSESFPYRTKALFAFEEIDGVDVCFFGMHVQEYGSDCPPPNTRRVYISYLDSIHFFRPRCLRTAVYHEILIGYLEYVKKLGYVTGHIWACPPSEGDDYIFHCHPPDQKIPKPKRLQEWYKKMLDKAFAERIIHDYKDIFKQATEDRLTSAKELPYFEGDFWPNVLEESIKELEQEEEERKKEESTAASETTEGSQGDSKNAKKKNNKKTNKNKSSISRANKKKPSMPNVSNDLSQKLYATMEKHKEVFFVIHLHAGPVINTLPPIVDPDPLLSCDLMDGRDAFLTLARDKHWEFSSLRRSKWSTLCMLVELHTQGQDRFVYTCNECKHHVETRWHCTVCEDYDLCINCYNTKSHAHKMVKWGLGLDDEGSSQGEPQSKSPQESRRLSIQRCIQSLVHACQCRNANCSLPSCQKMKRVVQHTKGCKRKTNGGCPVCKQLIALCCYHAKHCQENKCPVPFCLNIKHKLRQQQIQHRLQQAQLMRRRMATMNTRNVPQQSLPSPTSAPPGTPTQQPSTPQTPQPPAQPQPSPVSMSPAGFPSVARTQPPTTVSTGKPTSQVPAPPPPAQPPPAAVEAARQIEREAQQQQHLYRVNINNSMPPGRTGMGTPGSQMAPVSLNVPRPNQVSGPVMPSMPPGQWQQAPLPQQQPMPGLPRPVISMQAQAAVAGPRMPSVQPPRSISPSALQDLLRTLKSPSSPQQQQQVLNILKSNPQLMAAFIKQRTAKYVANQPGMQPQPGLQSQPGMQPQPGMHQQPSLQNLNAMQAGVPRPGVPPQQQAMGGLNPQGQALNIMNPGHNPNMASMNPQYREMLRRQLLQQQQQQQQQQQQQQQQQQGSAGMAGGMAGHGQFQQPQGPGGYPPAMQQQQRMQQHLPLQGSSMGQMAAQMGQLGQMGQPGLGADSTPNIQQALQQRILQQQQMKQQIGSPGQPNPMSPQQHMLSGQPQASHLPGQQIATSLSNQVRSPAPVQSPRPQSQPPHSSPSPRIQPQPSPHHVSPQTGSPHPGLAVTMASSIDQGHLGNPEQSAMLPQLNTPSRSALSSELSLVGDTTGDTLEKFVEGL
Procedure: as §1, §2, §3

H3K27Ac = assay: Intracellular H3K27Ac inhibitory activity in LK2 cells (Test Example 2); type: cell-based; conditions: Homo sapiens, LK-2, cultured with compound for 3 hours, read-out: Test Example 2 H3K27Ac Inhibition (LK2) IC50
Procedure: [Test Example 2] Evaluation of Intracellular H3K27Ac Inhibitory Activity
LK2 cells derived from human squamous cell lung cancer were seeded in a 96 well plate at 40000 cells/100 μL/well, and were cultured overnight at 37° C. in 5% CO2. The LK2 cells were purchased from Human Science Research Resources Bank. […] The supernatant was discarded, 4% paraformaldehyde was added thereto at 100 μL/well, and the resultant was allowed to stand still at room temperature for 15 minutes. The 4% paraformaldehyde was discarded, and the resultant was washed with PBS-T. A quenching buffer (PBS-T containing 1% H2O2) was added thereto at of 100 μL/well, and the resultant was allowed to stand still at room temperature for 10 minutes. The resultant was washed with PBS-T, a blocking buffer (StartingBlocK T20 (TBS) Blocking Buffer (Thermo […], #37543)) was added thereto at 200 μL/well, and the resultant was allowed to stand still at room temperature for 1 hour. The supernatant was discarded, Acetyl-Histone H3 (Lys27) (D5E4) XP (registered trademark) Rabbit mAb (cell Signaling, #8173) diluted with a blocking buffer was added thereto at 50 μL/well, and the resultant was allowed to stand still at 4° C. overnight. The resultant was washed with PBS-T, Anti-Rabbit IgG-HRP (Cell Signaling, #7074S) diluted with a blocking buffer was added thereto at 50 μL/well, and the resultant was cultured at room temperature for 1 hour. The resultant was washed with PBS-T, SuperSignal (registered trademark) ELISA Pico Chemiluminescent Substrate (Thermo […], #37069) was added thereto at 50 μL/well, and a signal was measured using EnVision.

LK2 cells = assay: Cell growth inhibitory activity, LK2 cells (Test Example 3); type: cell-based; conditions: Homo sapiens, LK-2, 72 h, cultured for 3 days, CellTiter-Glo
Procedure: (§4) [Test Example 3] Evaluation of Cell Growth Inhibitory Activity
(§5) As a culture medium for each cell, a 10% FBS supplemented RPMI 1640 medium (for LK2 cells and TE-8 cells derived from human esophageal cancer) was used. LK2 cells were purchased from Human Science Research Resources Bank, and TE-8 cells were purchased from Riken Cell Bank. The compound of each of Examples 1 to 108b was prepared by dilution with Freedom EVO 150 (Tecan Trading AG) (4-fold diluted, 10 stages, 10 mM to 38 nM). The resultant was added to respective wells of a 384-well plate in an amount of 40 nL/well using Echo 555 (Labcyte Inc.). The LK2 or TE-8 cells were seeded in the plate at 400 cells/40 μL/well (day 0), and were cultured for 3 days. On the day of addition of the compound (day 0) and 3 days after the addition of the compound (day 3), an ATP measurement reagent of CellTiter-Glo (registered trademark) 2.0 Assay (Promega Corporation, #G9242) was added to each well in an amount of 10 μL/well, and the amount of luminescence of each well was measured using EnVision. Based on the amount of luminescence (C0) on the day of the addition of the compound, and the amounts of luminescence of a compound non-addition group (C3) and a compound addition group (T3) obtained after the 3-day culture of the compound, a cell survival rate was calculated in accordance with the following expression: Cell survival rate (%)=(T3−C0)/(C3−C0)×100
(§6) A concentration (GI50 value) of each compound at which the growth of the TE-8 or LK-2 cells was inhibited by 50% was calculated by semilogarithmically plotting the cell survival rate at each concentration and the compound concentration.

TE-8 cells = assay: Cell growth inhibitory activity, TE-8 cells (Test Example 3); type: cell-based; conditions: Homo sapiens, 72 h, cultured for 3 days, CellTiter-Glo
Procedure: as §4, §5, §6

Chain of EP300 (Q09472 whole entry): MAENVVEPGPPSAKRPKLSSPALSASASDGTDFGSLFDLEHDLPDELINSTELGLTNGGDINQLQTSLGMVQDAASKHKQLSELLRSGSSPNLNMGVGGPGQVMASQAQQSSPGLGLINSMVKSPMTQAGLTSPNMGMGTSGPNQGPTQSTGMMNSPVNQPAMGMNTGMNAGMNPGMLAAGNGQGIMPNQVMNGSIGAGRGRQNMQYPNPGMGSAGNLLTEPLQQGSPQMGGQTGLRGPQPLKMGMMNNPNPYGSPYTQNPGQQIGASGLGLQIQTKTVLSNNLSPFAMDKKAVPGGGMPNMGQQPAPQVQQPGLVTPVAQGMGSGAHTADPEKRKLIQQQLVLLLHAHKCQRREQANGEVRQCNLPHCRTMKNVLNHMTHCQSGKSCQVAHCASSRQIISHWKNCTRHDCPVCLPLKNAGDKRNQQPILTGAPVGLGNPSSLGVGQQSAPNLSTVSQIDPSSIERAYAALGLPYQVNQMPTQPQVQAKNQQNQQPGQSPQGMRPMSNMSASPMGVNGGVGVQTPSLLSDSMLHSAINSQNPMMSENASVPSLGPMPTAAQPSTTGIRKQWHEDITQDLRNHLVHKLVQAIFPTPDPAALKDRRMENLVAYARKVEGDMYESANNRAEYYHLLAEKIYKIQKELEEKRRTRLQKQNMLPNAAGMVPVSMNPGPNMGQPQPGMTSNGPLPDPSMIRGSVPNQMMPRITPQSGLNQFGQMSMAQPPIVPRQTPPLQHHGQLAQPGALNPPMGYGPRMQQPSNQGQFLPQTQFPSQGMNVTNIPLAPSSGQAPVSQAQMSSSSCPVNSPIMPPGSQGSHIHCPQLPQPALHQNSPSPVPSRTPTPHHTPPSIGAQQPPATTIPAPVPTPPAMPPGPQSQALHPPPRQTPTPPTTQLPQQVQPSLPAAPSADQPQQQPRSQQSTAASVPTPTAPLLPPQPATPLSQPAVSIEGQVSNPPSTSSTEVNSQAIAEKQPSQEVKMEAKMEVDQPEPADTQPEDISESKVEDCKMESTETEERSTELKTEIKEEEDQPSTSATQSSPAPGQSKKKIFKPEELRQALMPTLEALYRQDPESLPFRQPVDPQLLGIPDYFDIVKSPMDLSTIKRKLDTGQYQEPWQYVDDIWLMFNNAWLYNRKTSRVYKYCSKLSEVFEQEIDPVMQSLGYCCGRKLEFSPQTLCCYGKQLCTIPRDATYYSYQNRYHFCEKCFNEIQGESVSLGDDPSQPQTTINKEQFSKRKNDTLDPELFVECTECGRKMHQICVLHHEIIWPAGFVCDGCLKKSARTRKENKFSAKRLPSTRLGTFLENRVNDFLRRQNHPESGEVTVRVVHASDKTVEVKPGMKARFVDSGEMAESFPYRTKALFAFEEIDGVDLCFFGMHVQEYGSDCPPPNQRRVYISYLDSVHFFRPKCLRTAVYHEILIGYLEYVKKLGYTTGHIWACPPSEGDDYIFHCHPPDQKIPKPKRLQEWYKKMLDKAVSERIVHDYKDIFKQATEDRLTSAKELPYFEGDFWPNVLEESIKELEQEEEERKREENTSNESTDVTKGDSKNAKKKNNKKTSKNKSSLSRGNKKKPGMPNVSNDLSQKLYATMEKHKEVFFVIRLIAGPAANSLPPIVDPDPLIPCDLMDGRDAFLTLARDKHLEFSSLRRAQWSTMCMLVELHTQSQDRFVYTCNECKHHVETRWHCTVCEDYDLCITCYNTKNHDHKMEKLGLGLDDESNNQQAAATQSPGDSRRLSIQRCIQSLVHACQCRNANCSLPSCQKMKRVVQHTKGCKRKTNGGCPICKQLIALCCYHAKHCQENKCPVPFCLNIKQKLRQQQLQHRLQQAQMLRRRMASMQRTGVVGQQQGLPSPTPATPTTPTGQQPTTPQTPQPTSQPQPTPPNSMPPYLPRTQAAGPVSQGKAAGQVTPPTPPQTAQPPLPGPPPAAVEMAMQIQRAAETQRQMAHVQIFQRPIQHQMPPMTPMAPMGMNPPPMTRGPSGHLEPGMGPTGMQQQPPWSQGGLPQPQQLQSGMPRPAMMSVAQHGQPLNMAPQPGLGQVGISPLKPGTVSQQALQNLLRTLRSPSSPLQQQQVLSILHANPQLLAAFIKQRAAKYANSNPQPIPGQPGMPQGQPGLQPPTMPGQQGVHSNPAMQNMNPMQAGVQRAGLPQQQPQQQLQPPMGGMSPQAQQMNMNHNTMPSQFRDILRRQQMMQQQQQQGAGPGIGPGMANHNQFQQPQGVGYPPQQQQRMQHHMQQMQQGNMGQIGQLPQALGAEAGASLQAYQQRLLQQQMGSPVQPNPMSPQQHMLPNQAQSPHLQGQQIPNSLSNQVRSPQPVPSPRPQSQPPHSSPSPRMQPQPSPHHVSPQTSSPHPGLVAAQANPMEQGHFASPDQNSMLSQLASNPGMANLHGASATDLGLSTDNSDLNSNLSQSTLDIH

Row | IC50 (EP300) | IC50 (CREBBP) | IC50 (H3K27Ac) | Structure (SMILES) | GI50 (LK2 cells) | GI50 (TE-8 cells)
1 | 0.05 µM | 0.083 µM | 0.125 µM | COc1ccc(C2(C(=O)N3CCOCC(Cc4cccc5[nH]ncc45)C3)CCCC2)cc1 (single isomer, unassigned) [Example 108b, [6-(1H-Indazol-4-ylmethyl)-1,4-oxazepan-4-yl][1-(4-methoxyphenyl)cyclopentyl]methanone] | 1.09 µM | 1.16 µM
2 | 0.176 µM | 0.218 µM |  | COc1ccc(C2(C(=O)N3CCC[C@@H]3C(=O)Nc3cccc4[nH]ncc34)CCCC2)cc1 [Example 1, N-1H-Indazol-4-yl-1-{[1-(4-methoxyphenyl)cyclopentyl]carbonyl}-D-prolinamide] | 2.74 µM | 3.41 µM
3 | 0.031 µM | 0.128 µM | 0.101 µM | COc1ccc(C2(C(=O)N3C[C@H](F)C[C@@H]3C(=O)Nc3ccc4[nH]ncc4n3)CCOCC2)cc1 [Example 45, (4R)-4-Fluoro-1-{[4-(4-methoxyphenyl)tetrahydro-2H-pyran-4-yl]carbonyl}-N-1H-pyrazolo[4,3-b]pyridin-5-yl-D-prolinamide] | 0.733 µM | 1.35 µM
4 | 0.013 µM | 0.059 µM | 0.077 µM | COc1ccc(C(C)(C)C(=O)N2C[C@H](F)C[C@@H]2C(=O)Nc2ccc3[nH]ncc3n2)cc1 [Example 47] | 0.585 µM | 1.14 µM
5 | 0.014 µM | 0.034 µM | 0.025 µM | O=C(Nc1ccc2[nH]ncc2n1)[C@H]1C[C@@H](F)CN1C(=O)C1(c2ccc(OCF)cc2)CCC(F)(F)CC1 [Example 48] | 0.105 µM | 0.135 µM
6 | 0.013 µM | 0.025 µM | 0.039 µM | O=C(Nc1ccc2[nH]ncc2n1)[C@H]1C[C@@H](F)CN1C(=O)C1(c2ccc(OCF)cc2)CCCC1 [Example 49] | 0.075 µM | 0.0681 µM
7 | 0.021 µM | 0.051 µM | 0.028 µM | COc1ccc(C2(C(=O)N3C[C@H](F)C[C@@H]3C(=O)Nc3ccc4cc[nH]c4n3)CCCCC2)cc1 [Example 52] | 0.254 µM | 0.439 µM
8 |  |  | 2.08 µM | COc1ccc(C2(C(=O)N3CCC[C@@H]3C(=O)Nc3cccc4[nH]ncc34)CCC2)cc1 [Example 53, N-1H-Indazol-4-yl-1-{[1-(4-methoxyphenyl)cyclobutyl]carbonyl}-D-prolinamide] | 2.64 µM | 6.06 µM
9 | 0.056 µM | 0.095 µM | 0.021 µM | O=C(Nc1ccc2[nH]ncc2n1)[C@H]1C[C@@H](F)CN1C(=O)C1(c2ccc(C(=O)C(F)(F)F)cc2)CCCCC1 [Example 61, (4R)-4-Fluoro-N-1H-pyrazolo[4,3-b]pyridin-5-yl-1-({1-[4-(trifluoroacetyl)phenyl]cyclohexyl}carbonyl)-D-prolinamide] | 0.149 µM | 0.216 µM
10 | 0.034 µM | 0.043 µM | 0.015 µM | COc1ccc(C2(C(=O)N3C[C@H](F)C[C@@H]3C(=O)Nc3ccc4[nH]ncc4n3)CCCCC2)cn1 [Example 63] | 0.086 µM | 0.117 µM

Second part, the compound before the results:

Row | Structure (SMILES) | IC50 (EP300) | IC50 (CREBBP) | IC50 (H3K27Ac) | GI50 (LK2 cells) | GI50 (TE-8 cells)
11 | COc1ccc(C2(C(=O)N3C[C@H](F)C[C@@H]3C(=O)Nc3cccc4[nH]ncc34)CCCCO2)cc1 (single isomer, unassigned) [Example 44] | 0.048 µM | 0.048 µM | 0.246 µM | 0.589 µM | 1.74 µM
12 | COc1ccc(C2(C(=O)N3CCC[C@@H]3C(=O)Nc3ccc4[nH]ncc4c3)CCCC2)cc1 [Example 24, N-1H-Indazol-5-yl-1-{[1-(4-methoxyphenyl)cyclopentyl]carbonyl}-D-prolinamide] | 0.254 µM | 0.128 µM | 0.916 µM | 1.62 µM | 4.06 µM
13 | COc1ccc(C2(C(=O)N3C[C@H](F)[C@@H](O)[C@@H]3C(=O)Nc3ccc4[nH]ncc4n3)CCC(F)(F)CC2)cc1 [Example 38] | 0.057 µM | 0.109 µM | 0.038 µM | 0.117 µM | 0.176 µM
14 | COc1ccc(C2(C(=O)N(C)[C@H](C)C(=O)Nc3ccc4[nH]ncc4n3)CCCCC2)cc1 [Example 46] | 0.024 µM | 0.045 µM | 0.014 µM | 0.147 µM | 0.145 µM
15 | COc1ccc(C2(C(=O)N3C[C@H](F)C[C@@H]3C(=O)Nc3ccc4[nH]ccc4n3)CCCCC2)cc1 [Example 50] | 0.02 µM | 0.027 µM | 0.027 µM | 0.166 µM | 0.288 µM
16 | COc1ccc(C2(C(=O)N3C[C@H](F)C[C@@H]3C(=O)Nc3ccc4[nH]ccc4n3)CCC(F)(F)CC2)cc1 [Example 51] | 0.041 µM | 0.054 µM | 0.05 µM | 0.351 µM | 0.916 µM
17 | COc1ccc(C2(C(=O)N3CCC[C@@H]3C(=O)Nc3cccc4[nH]ncc34)CCCCCC2)cc1 [Example 54] | 0.126 µM | 0.201 µM | 0.92 µM | 2.97 µM | 4.48 µM
18 | COc1ccc(C2(C(=O)N3C[C@H](F)C[C@@H]3C(=O)Nc3ccc4[nH]ncc4n3)CC(F)(F)C2)cc1 [Example 56, (4R)-1-{[3,3-Difluoro-1-(4-methoxyphenyl)cyclobutyl]carbonyl}-4-fluoro-N-1H-pyrazolo[4,3-b]pyridin-5-yl-D-prolinamide] | 0.024 µM | 0.064 µM | 0.02 µM | 0.0988 µM | 0.0883 µM
19 | COc1ccc(C2(C(=O)N3C[C@H](F)C[C@@H]3C(=O)Nc3ccc4[nH]ncc4n3)CC(C)(C)C2)cc1 [Example 57] | 0.048 µM | 0.076 µM | 0.053 µM | 0.31 µM | 0.473 µM
20 | CC(C)(C(=O)N1C[C@H](F)C[C@@H]1C(=O)Nc1ccc2[nH]ncc2n1)c1ccc(OC(F)(F)F)cc1 [Example 58] | 0.06 µM | 0.075 µM | 0.173 µM | 0.699 µM | 1.28 µM
21 | COc1c(F)cc(C2(C(=O)N3C[C@H](F)C[C@@H]3C(=O)Nc3ccc4[nH]ncc4n3)CCC(F)(F)CC2)cc1F [Example 62] | 0.076 µM | 0.087 µM | 0.142 µM | 0.489 µM | 0.88 µM

— US11274100B2, “EP300/CREBBP inhibitor” (Daiichi Sankyo Company, Limited, priority 2017, dated 2022)
